Each molecule was assayed against PIK3CB;PIK3CG;PIK3CD;PIK3CA (human) (UniProt P48736) (assay: Enzyme Assay).
`O=C(c1nn(C2CCOCC2)c2c1CS(=O)(=O)c1ccccc1-2)N1CCOCC1` was tested, and the IC50 was 223 nM. `CN1CCN(C(=O)c2ccc3c(c2)-c2c(c(C(=O)N4CCOCC4)nn2-c2ccccc2)CS3(=O)=O)CC1` showed an IC50 of 4280 nM. With `O=C(c1nn(-c2ccccc2F)c2c1CS(=O)(=O)c1ccccc1-2)N1CCOCC1` the IC50 was 2000 nM. `O=C(c1nn(CC2CCOCC2)c2c1CS(=O)(=O)c1ccccc1-2)N1CCOCC1` showed an IC50 of 789 nM. Work on `O=C(c1nn(-c2cccc(-c3nccs3)c2)c2c1CS(=O)(=O)c1ccccc1-2)N1CCOCC1` yielded an IC50 of 4220 nM. For `COc1ccc2c(c1)S(=O)(=O)Cc1c(C(=O)N3CCOCC3)nn([C@@H]3CCCN(CCC4CCOCC4)C3)c1-2`, the IC50 was 10300 nM. `O=C(c1nn(-c2cccc(-c3ccoc3)c2)c2c1CS(=O)(=O)c1ccccc1-2)N1CCOCC1` gave an IC50 of 826 nM. `O=C(c1nn(-c2ccc(CNC3CCCOC3)cc2)c2c1CS(=O)(=O)c1ccccc1-2)N1CCOCC1` (centres undefined) showed an IC50 of 224 nM. `O=C(c1nn(C2CCCN(CCn3cccn3)C2)c2c1CS(=O)(=O)c1ccccc1-2)N1CCOCC1` (centres undefined) gave an IC50 of 169 nM. Work on `COc1cccc(-n2nc(C(=O)N3CCOCC3)c3c2-c2ccccc2S(=O)(=O)C3)c1` yielded an IC50 of 1320 nM. For `COC1CCN(Cc2cccc(-n3nc(C(=O)N4CCOCC4)c4c3-c3ccccc3S(=O)(=O)C4)c2)C1` (centres undefined), the IC50 was 350 nM. Work on `O=C(c1nn(-c2cccc(CN3CCOCC3)c2)c2c1CS(=O)(=O)c1ccccc1-2)N1CCOCC1` yielded an IC50 of 1300 nM. `CC(=O)NCCN1CCC[C@H](n2nc(C(=O)N3CCOCC3)c3c2-c2ccccc2S(=O)(=O)C3)C1` gave an IC50 of 105 nM. `CN(C)c1cccc(-n2nc(C(=O)N3CCOCC3)c3c2-c2ccccc2S(=O)(=O)C3)c1` showed an IC50 of 4720 nM. `O=C(c1nn([C@H]2CCCN(c3ccncc3)C2)c2c1CS(=O)(=O)c1ccccc1-2)N1CCOCC1` gave an IC50 of 133 nM. `Cc1nnc(-c2cccc(-n3nc(C(=O)N4CCOCC4)c4c3-c3ccccc3S(=O)(=O)C4)c2)o1` gave an IC50 of 1200 nM. Work on `Nc1ccc2c(c1)-c1c(c(C(=O)N3CCOCC3)nn1-c1ccccc1)CS2(=O)=O` yielded an IC50 of 368 nM. `O=C(c1nn([C@H]2CCCN(C3CCCOC3)C2)c2c1CS(=O)(=O)c1ncccc1-2)N1CCOCC1` (some centres undefined) was tested, and the IC50 was 36 nM. `O=C(CCN1CCC[C@H](n2nc(C(=O)N3CCOCC3)c3c2-c2ccccc2S(=O)(=O)C3)C1)N1CC(F)(F)C1` gave an IC50 of 39 nM. Work on `COCCN1CCC[C@@H](n2nc(C(=O)N3CCOCC3)c3c2-c2ccccc2S(=O)(=O)C3)C1` yielded an IC50 of 3550 nM. Molecule `O=C(c1nn(-c2cccc(CN3CCCCC3)c2)c2c1CS(=O)(=O)c1ccccc1-2)N1CCOCC1` has an IC50 of 394 nM. `O=C(c1nn([C@H]2CCCN(C3CCCOC3)C2)c2c1CS(=O)(=O)c1c(F)cccc1-2)N1CCOCC1` (some centres undefined) showed an IC50 of 25 nM. `O=C(c1nn(C2CCCN(C3COC3)C2)c2c1CS(=O)(=O)c1ccccc1-2)N1CCOCC1` (centres undefined) was tested, and the IC50 was 67 nM. `O=C(c1nn(C2CCCNC2)c2c1CS(=O)(=O)c1cc(OC(F)(F)F)ccc1-2)N1CCOCC1` (centres undefined) showed an IC50 of 10500 nM. Molecule `O=C(c1nn(-c2ccc(CN3CCC(O)C3)cc2)c2c1CS(=O)(=O)c1ccccc1-2)N1CCOCC1` (centres undefined) has an IC50 of 859 nM. Work on `O=C(c1nn(-c2cccc(CN3CCS(=O)(=O)CC3)c2)c2c1CS(=O)(=O)c1ccccc1-2)N1CCOCC1` yielded an IC50 of 639 nM. For `O=C(c1nn([C@@H]2CCCN(CCC3CCOCC3)C2)c2c1CS(=O)(=O)c1ncccc1-2)N1CCOCC1`, the IC50 was 99 nM. Molecule `O=C(c1nn(Cc2ccccc2)c2c1CS(=O)(=O)c1ccccc1-2)N1CCOCC1` has an IC50 of 1190 nM. Work on `O=C(c1nn(-c2ccccc2)c2c1C(CC1CC1)S(=O)(=O)c1ccccc1-2)N1CCOCC1` (centres undefined) yielded an IC50 of 3900 nM. `O=C(c1nn(-c2ccc(CNC3CCOC3)cc2)c2c1CS(=O)(=O)c1ccccc1-2)N1CCOCC1` (centres undefined) was tested, and the IC50 was 156 nM. In the case of `O=C(c1nn([C@@H]2CCCN(CCC3CCOCC3)C2)c2c1CS(=O)(=O)c1ccccc1-2)N1CCOCC1`, the IC50 is reported as 2200 nM. For `O=C(c1nn(C2CCCN(Cc3ccccc3)C2)c2c1CS(=O)(=O)c1ccccc1-2)N1CCOCC1` (centres undefined), the IC50 was 540 nM. Work on `O=C(c1ccc2c(c1)-c1c(c(C(=O)N3CCOCC3)nn1-c1ccccc1)CS2(=O)=O)N1CCCCC1` yielded an IC50 of 3410 nM. Work on `O=C(c1nn(Cc2cc(Cl)cs2)c2c1CS(=O)(=O)c1ccccc1-2)N1CCOCC1` yielded an IC50 of 624 nM. Molecule `COCCN1CCCC(n2nc(C(=O)N3CCOCC3)c3c2-c2ccccc2S(=O)(=O)C3)C1` (centres undefined) has an IC50 of 188 nM. With `O=C(c1nn([C@H]2CCCN(CCN3CCOCC3)C2)c2c1CS(=O)(=O)c1c(Cl)cccc1-2)N1CCOCC1` the IC50 was 30 nM. For `COC1CN(Cc2ccc(-n3nc(C(=O)N4CCOCC4)c4c3-c3ccccc3S(=O)(=O)C4)cc2)C1`, the IC50 was 165 nM. In the case of `CN(C)CC(C)(C)c1ccc(-n2nc(C(=O)N3CCOCC3)c3c2-c2ccccc2S(=O)(=O)C3)cc1`, the IC50 is reported as 159 nM. With `O=C(c1nn(C2CCCN(CCc3ccccc3)C2)c2c1CS(=O)(=O)c1ccccc1-2)N1CCOCC1` (centres undefined) the IC50 was 711 nM. For `O=C(c1nn([C@@H]2CCCN(CC3CCOCC3)C2)c2c1CS(=O)(=O)c1ncccc1-2)N1CCOCC1`, the IC50 was 830 nM. With `O=C(c1nn([C@H]2CCCN(CCC3CCOCC3)C2)c2c1CS(=O)(=O)c1c(F)cccc1-2)N1CCOCC1` the IC50 was 6 nM. `O=C(c1nn(C2CN(CCC3CCOCC3)C2)c2c1CS(=O)(=O)c1ccccc1-2)N1CCOCC1` showed an IC50 of 95 nM. In the case of `O=C(c1nn(-c2ccc(Br)cc2)c2c1CS(=O)(=O)c1ccccc1-2)N1CCOCC1`, the IC50 is reported as 1120 nM. With `O=C(c1nn(-c2cccc(OCCn3ccnc3)c2)c2c1CS(=O)(=O)c1ccccc1-2)N1CCOCC1` the IC50 was 179 nM.

— the Kinase Knowledgebase extract (Sharma et al. 2016)
